Each structure is given as a SMILES string. Counter-ions that a name gives are not always drawn. Active and inactive are the calls of the source. A value given as a limit tells only on which side of the number the result lay.

Results on 9 molecules are retold here after ChEMBL document CHEMBL1201862, “PubChem BioAssay data set” (2004).

Assay [1] deals with T1, Nuclear receptor subfamily 0 group B member 1 (Homo sapiens, UniProt P51843).
T1 sequence (P51843 whole entry): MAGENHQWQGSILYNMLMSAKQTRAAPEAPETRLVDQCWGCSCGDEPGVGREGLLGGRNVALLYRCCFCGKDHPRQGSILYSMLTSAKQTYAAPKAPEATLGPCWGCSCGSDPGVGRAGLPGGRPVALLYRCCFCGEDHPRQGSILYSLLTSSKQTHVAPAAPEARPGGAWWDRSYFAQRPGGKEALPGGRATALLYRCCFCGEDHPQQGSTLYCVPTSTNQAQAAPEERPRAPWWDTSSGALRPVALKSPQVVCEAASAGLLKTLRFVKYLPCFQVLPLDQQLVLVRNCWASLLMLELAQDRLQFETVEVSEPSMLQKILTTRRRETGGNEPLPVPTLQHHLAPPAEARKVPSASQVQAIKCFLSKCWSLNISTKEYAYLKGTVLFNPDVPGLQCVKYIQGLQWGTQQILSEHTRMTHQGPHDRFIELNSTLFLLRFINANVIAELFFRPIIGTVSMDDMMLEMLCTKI
The assay can be described thus: Luminescence-based cell-based high throughput dose response assay for inhibitors of the orphan nuclear receptor subfamily 0, group B, member 1 (DAX1; NR0B1). [Related pubchem assays (depositor defined):AID504766, AID504790]. It counts as functional.

A further assay deals with HEK293. The experiment in a line: cells. It counts as functional, cell-based. As to conditions: Homo sapiens.
The target of the next assay is Cytochrome P450 3A4 (Homo sapiens, UniProt P08684).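 Note: CYP3A4 tested as one member of a cytochrome P450 panel screen.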
In a further assay the target is fMet-Leu-Phe receptor (Homo sapiens, UniProt P21462). The experiment in a line: FPR ligands, dose response (AID 519). It counts as functional.
A short description of assay [2]: C. albicans growth with fluconazole, confirmation, fluorescence, retest (AID 2467). The assay is classed as functional, cell-based.
The target of another assay is Cytochrome P450 2C19 (Homo sapiens, UniProt P33261). The experiment in a line: Cytochrome panel assay with activity outcomes. Panel member name: p450-cyp2c19 Compounds with AC50 equal or less than 10 uM are considered active. As to conditions: read-out: AC50. The assay is classed as functional.
The target of assay [3] is Peroxisome proliferator-activated receptor gamma/Nuclear receptor coactivator 2 (Homo sapiens, UniProt P37231). The assay can be described thus: TR-FRET dose response biochemical High Throughput Screening assay for agonists of the steroid receptor coactivator 2 (SRC-2) recruitment by the peroxisome proliferator-activated receptor gamma (PPAR gamma): non-selective agonists. [Related pubchem assays: 1297, 1032 ]. It counts as functional.

Assay [4] addresses ATP-dependent molecular chaperone HSP82 (Candida albicans (strain WO-1) (Yeast), UniProt C4YTQ8). The experiment in a line: loss of DOC-induced GRE-beta-galactosidase reporter signal, dose response, Hsp90 inhibitor project, S. cerevisiae, luminescence (AID 2400).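 Note: beta-galactosidase luminescence from glucocorticoid response element reporter as proxy for Hsp90 function; inhibitor potency where signal loss means Hsp90 inhibition.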 The assay is classed as functional, cell-based.
The target in assay [5] is Peroxisome proliferator-activated receptor gamma/Nuclear receptor coactivator 1 (Homo sapiens, UniProt P37231). The assay can be described thus: TR-FRET dose response biochemical High Throughput Screening assay for agonists of the steroid receptor coactivator 1 (SRC-1) recruitment by the peroxisome proliferator-activated receptor gamma (PPAR gamma): non-selective agonists. [Related pubchem assays (depositor defined):AID1300, AID1808, AID504735, AID631]. The assay is classed as protein assay.
Chain of Peroxisome proliferator-activated receptor gamma/Nuclear receptor coactivator 1 (P37231 whole entry): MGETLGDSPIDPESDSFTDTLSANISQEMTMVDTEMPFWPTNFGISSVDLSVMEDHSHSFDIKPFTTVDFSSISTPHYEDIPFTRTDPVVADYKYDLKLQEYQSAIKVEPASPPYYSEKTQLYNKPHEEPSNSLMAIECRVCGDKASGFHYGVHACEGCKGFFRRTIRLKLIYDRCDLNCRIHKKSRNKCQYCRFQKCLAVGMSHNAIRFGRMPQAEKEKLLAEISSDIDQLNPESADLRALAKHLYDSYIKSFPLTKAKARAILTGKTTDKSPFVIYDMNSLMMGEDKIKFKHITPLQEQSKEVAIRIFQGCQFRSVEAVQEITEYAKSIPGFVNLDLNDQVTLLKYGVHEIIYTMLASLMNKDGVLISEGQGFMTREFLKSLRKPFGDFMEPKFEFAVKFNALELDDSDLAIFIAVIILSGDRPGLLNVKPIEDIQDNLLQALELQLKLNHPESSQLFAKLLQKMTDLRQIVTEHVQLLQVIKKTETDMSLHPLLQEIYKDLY
Chain of Peroxisome proliferator-activated receptor gamma/Nuclear receptor coactivator 1 (Q15788 whole entry, further chain): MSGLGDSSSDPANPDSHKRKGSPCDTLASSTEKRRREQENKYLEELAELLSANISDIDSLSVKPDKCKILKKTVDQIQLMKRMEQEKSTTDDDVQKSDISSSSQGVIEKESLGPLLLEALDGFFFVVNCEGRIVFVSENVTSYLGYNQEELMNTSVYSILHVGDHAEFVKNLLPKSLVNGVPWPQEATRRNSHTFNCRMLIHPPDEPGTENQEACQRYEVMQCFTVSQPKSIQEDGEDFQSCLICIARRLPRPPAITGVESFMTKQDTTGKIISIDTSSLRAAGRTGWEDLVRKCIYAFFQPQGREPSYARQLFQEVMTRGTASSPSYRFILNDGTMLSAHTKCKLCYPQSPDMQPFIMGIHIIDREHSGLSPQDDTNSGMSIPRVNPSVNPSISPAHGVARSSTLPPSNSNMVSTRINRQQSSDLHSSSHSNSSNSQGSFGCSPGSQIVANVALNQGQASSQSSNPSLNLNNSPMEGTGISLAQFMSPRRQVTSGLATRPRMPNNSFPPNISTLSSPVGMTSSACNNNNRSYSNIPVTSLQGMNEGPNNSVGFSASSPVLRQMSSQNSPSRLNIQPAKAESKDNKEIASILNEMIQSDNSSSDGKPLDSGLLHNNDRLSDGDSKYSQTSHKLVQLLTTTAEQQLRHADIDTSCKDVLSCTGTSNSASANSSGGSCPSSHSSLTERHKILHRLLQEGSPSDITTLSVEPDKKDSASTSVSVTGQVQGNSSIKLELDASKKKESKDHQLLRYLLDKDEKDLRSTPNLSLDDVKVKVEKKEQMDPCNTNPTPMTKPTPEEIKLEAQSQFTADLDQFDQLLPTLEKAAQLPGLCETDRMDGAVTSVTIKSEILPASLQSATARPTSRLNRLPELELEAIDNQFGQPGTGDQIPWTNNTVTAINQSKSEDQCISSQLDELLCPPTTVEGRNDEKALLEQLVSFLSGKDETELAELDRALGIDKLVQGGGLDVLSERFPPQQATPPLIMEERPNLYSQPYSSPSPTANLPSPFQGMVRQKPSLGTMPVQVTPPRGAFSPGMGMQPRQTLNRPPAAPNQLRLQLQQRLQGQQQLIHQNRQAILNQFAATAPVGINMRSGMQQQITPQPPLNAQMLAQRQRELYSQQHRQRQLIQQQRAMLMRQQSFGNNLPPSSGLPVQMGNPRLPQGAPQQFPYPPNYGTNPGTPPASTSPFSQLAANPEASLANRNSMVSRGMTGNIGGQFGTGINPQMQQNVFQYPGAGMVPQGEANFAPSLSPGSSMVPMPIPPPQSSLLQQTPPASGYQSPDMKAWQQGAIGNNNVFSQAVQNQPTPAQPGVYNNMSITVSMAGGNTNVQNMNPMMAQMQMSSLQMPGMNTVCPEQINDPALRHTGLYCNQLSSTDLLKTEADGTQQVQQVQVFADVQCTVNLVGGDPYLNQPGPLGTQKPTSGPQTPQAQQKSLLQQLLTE

For assay [6], the target named is Peroxisome proliferator-activated receptor gamma/Nuclear receptor corepressor 2 (Homo sapiens, UniProt P37231+Q9Y618). The assay is classed as functional.
Assay [7] can be described thus: NIH-3T3 fibroblast cytotoxicity, dose response, cytotoxicity control, cell-based, fluorescence, Alamar Blue, secondary assay (AID 2327).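 Note: NIH-3T3 mouse fibroblasts cultured with fluconazole at 8 µg/mL.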 It counts as functional.
The target in assay [8] is Peroxisome proliferator-activated receptor gamma/Nuclear receptor coactivator 3 (Homo sapiens, UniProt P37231). The assay can be described thus: TR-FRET dose response biochemical High Throughput Screening assay for agonists of the steroid receptor coactivator 3 (SRC-3) recruitment by the peroxisome proliferator-activated receptor gamma (PPAR gamma): non-selective agonists. [Related pubchem assays: 1301 (Confirmation screen.), 1048 (Primary screen.)]. The assay is classed as functional.
Chain of Peroxisome proliferator-activated receptor gamma/Nuclear receptor coactivator 3 (P37231 whole entry): as the sequence (P37231 whole entry) above
Chain of Peroxisome proliferator-activated receptor gamma/Nuclear receptor coactivator 3 (Q9Y6Q9 whole entry, further chain): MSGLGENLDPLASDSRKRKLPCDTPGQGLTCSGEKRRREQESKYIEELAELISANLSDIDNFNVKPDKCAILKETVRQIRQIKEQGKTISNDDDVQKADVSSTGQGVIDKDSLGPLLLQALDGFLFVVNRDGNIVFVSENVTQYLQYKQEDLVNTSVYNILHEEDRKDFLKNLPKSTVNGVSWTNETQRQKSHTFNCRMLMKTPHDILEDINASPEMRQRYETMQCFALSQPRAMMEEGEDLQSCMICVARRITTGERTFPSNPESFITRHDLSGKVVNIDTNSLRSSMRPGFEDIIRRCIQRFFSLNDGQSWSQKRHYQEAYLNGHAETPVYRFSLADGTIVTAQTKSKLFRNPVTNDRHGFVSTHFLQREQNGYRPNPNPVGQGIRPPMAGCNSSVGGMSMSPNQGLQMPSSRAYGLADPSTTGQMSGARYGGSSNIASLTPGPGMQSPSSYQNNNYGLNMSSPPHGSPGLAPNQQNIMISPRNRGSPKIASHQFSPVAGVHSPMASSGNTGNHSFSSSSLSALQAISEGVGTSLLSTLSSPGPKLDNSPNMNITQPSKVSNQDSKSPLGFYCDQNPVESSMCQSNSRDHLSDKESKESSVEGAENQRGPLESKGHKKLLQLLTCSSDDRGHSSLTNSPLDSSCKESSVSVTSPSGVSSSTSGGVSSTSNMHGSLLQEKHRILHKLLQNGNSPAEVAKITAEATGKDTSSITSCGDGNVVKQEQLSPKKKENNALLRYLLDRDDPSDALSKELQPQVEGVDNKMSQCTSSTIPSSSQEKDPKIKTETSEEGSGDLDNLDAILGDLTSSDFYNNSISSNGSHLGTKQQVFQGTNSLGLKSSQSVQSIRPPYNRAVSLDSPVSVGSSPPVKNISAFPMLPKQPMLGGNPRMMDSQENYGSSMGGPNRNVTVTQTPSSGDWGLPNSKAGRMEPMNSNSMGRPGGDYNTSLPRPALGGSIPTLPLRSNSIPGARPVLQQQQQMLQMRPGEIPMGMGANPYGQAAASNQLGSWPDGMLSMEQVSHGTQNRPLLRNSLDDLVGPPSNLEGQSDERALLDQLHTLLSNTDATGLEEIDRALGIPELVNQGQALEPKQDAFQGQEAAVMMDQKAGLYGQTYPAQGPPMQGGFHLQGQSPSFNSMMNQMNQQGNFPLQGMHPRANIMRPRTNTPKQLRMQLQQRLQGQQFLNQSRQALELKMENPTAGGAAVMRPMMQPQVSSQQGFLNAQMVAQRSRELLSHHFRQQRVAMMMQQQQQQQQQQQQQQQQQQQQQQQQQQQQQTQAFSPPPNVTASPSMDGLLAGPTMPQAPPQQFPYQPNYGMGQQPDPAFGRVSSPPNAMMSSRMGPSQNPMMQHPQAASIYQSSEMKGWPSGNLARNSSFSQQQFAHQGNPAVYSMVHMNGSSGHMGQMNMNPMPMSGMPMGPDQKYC

Assay [9] has as its target Serine/threonine-protein phosphatase (Candida dubliniensis (strain CD36 / CBS 7987 / NCPF 3949 / NRRLY-17841) (Yeast), UniProt B9W6M3). The assay can be described thus: calcineurin pathway inhibitors in yeast reporter, dose response, S. cerevisiae, CDRE-lacZ, luminescence, secondary (AID 2388).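 Note: yeast reporter cells carrying a calcineurin-responsive lacZ construct stimulated with calcium chloride; luminescent beta-galactosidase reporter signal in whole cells rather than isolated phosphatase activity; potency for inhibition where a drop in reporter signal means calcineurin blockade.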 The assay is classed as functional, cell-based.
Assay [10] concerns the target Photoreceptor-specific nuclear receptor (Homo sapiens, UniProt Q9Y5X4). The assay is classed as functional.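 Note: potency for compounds that break the NR2E3 corepressor complex and count as activators.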
In assay [11] the test system is Candida albicans. The assay can be described thus: growth inhibition of resistant C. albicans, dose response, CaCi-8 strain, fluconazole, dry powder, set 4 (AID 488950). It counts as functional, organism-based.
Assay [12] concerns Candida albicans. The assay can be described thus: fluconazole resistance reversal in C. albicans, dose response, CaCi-2 strain, Alamar Blue, dry powder, set 4 (AID 488943). The assay is classed as functional, organism-based.
The subject of assay [13] is Candida albicans. The experiment in a line: C. albicans growth inhibition with fluconazole, dose response, antifungal resistance reversal project, CaCi-2 strain, Alamar Blue, dry powder, set 2 (AID 488930). It counts as functional, organism-based.
Assay [14] concerns Candida albicans. The assay can be described thus: growth inhibition of azole-resistant C. albicans, dose response, CaCi-8 strain, Alamar Blue, dry powder, set 2 (AID 488909). The assay is classed as functional, organism-based.
A further assay deals with HeLa. The assay can be described thus: HeLa cell cytotoxicity, dose response, cytotoxicity control for MITF activator project, CellTiter-Glo luminescence, cherry-pick samples (AID 540259). The assay is classed as functional, cell-based. The following applies: Homo sapiens.
For assay [15], the target named is Dual specificity protein kinase CLK1 (Homo sapiens, UniProt P49759). The assay can be described thus: CLK1 kinase inhibitors, off-target check, dose response, selectivity assay for Dyrk1A inhibitor project, biochemical, cherry-picked samples (AID 588811).
Assay [16] addresses Beta-2 adrenergic receptor (Homo sapiens, UniProt P07550). The experiment in a line: beta2AR agonists driving receptor internalization, dose response, cell-based, FAP fluorogen, flow cytometry, cherry pick 1 (AID 588763). It counts as functional.
Assay [17] in a line: cytotoxicity in HMLE control line with eGFP shRNA, dose response, counter-screen for HMLE_sh_ECad selective toxicity project, cell-based, HMLE_sh_eGFP, luminescence (AID 463074).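 Note: HMLE human mammary epithelial cells expressing control shRNA against eGFP.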 It counts as functional, Homo sapiens.
The target in assay [18] is T2, Latent membrane protein 1 (Human herpesvirus 4 (strain B95-8), UniProt P03230).
T2 sequence (P03230 whole entry): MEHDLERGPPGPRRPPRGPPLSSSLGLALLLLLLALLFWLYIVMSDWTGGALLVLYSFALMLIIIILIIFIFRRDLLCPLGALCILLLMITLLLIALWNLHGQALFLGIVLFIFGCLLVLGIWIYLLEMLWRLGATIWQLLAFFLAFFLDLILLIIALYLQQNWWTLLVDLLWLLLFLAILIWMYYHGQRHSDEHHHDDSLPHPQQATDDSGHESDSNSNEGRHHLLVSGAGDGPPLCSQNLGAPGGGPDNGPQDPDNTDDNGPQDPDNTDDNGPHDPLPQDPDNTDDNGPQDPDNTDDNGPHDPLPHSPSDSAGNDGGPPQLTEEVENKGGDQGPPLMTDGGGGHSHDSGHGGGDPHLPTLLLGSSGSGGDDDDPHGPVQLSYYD
The experiment in a line: TES1-eGFP NF-kB reporter inhibition versus Tet-On dsRED, dose response, selectivity assay for LMP1 NF-kB inhibitor project, imaging, HEK293T, dual-color eGFP/dsRED, cherry-picks (AID 588398). The assay is classed as functional, cell-based.

Assay [19] is described as follows: Luminescence Cell-Based Dose Retest to Confirm Inhibitors of Cancer Stem Cells. [Related pubchem assays (depositor defined):AID2717, AID2721]. It counts as functional. As to conditions: Homo sapiens.
A short description of assay [20]: Counterscreen for activators of the function of SWI/SNF related, matrix associated, actin dependent regulator of chromatin, subfamily a, member 2 (SMARCA2, BRM): Luminescence-based cell-based high throughput dose response assay to identify non-selective compounds using the VP16 reporter assay. The assay is classed as functional.
In assay [21] the target is SWI/SNF-related matrix-associated actin-dependent regulator of chromatin subfamily A member 2 (Homo sapiens, UniProt P51531). The experiment in a line: Luminescence-based cell-based high throughput dose response assay to identify activators of the function of SWI/SNF related, matrix associated, actin dependent regulator of chromatin, subfamily a, member 2 (SMARCA2, BRM). The assay is classed as functional.

Assay [22] is described as follows: microbe, parasite or virus in culture. The assay is classed as functional. As to conditions: Mycobacterium tuberculosis.
Assay [23] concerns the target Voltage-gated inwardly rectifying potassium channel KCNH2 (Homo sapiens, UniProt Q12809). The following applies: Potency.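 Note: confirmatory quantitative high-throughput screen measuring inhibition of hERG channel activity.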
In another assay the target is Caspase-7 (Homo sapiens, UniProt P55210). The experiment in a line: human caspase-7 inhibitors, dose response, selectivity assay for caspase-6 inhibitor project, biochemical, DEVD-R110 fluorescence, cherry-pick (AID 743295). The assay is classed as […].
In a further assay the target is T3, Caspase-6 (Homo sapiens, UniProt P55212).
T3 sequence (P55212 whole entry): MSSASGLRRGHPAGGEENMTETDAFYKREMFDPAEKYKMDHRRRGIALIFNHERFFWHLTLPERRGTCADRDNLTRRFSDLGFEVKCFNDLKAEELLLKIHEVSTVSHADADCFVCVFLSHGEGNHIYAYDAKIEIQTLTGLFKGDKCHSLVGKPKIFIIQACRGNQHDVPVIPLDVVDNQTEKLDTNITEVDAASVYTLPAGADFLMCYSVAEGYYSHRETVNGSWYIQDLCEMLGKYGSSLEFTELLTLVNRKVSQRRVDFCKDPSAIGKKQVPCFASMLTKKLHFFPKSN
The assay can be described thus: human caspase-6 inhibitors, dose response, biochemical, VEID-R110 fluorescence, cherry-pick (AID 720632).

In another assay the target is Keap1/Nrf2 (Homo sapiens, UniProt Q14145). The assay can be described thus: Keap1-Nrf2 protein-protein interaction inhibitors, dose response, biochemical, fluorescence polarization, cherry-picked samples (AID 588683).
Chain of Keap1/Nrf2 (Q16236 whole entry): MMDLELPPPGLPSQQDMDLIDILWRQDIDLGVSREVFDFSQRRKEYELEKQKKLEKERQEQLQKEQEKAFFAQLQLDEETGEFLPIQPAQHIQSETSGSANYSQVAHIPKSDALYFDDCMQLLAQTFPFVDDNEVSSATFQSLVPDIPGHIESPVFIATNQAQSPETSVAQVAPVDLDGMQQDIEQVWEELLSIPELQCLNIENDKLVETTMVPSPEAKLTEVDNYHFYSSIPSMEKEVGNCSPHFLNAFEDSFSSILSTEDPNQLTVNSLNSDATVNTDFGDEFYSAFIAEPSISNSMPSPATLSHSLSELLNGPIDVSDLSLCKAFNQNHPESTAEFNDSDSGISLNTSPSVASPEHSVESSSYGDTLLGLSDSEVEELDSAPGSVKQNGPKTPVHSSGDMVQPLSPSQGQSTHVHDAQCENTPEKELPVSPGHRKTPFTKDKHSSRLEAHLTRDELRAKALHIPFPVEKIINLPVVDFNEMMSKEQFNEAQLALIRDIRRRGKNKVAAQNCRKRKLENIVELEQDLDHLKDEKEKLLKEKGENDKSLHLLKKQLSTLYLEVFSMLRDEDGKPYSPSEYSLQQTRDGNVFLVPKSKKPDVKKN
Chain of Keap1/Nrf2 (Q14145 whole entry): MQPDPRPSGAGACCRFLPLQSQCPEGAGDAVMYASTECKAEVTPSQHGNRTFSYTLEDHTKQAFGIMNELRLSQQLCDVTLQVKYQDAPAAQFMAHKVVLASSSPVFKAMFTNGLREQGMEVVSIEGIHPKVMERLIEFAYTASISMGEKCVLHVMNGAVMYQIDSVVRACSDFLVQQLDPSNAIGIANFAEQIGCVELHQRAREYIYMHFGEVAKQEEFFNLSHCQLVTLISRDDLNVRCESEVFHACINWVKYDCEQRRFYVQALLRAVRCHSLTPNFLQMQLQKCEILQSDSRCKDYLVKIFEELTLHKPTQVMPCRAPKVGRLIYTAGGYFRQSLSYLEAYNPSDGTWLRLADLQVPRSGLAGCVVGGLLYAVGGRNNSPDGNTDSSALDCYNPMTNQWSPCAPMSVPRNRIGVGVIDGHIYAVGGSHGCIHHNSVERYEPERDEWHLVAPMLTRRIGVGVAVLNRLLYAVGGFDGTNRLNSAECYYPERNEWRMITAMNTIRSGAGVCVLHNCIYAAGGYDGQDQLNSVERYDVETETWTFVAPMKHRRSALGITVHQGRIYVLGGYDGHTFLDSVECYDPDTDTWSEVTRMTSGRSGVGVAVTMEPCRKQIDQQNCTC

For the molecule `Cc1ccccc1NC(=O)Nc1nc2ccc(S(C)(=O)=O)cc2s1`, the IC50 (in assay [1]; in the assay with HEK293) was > 67.5 µM (inactive) each time.

Take `COc1cccc(C2C(C(=O)c3cc4ccccc4o3)=C(O)C(=O)N2c2cc(C)on2)c1OC` (stereo unspecified): the AC50 is 28.2 µM (inconclusive) on Cytochrome P450 3A4 and 15.8 µM (inconclusive) on Cytochrome P450 2C19. Further, the Ki at fMet-Leu-Phe receptor is > 66.7 µM (inactive). The EC50 in [2] was 0.61 µM (active); in assay [3], 9.84 µM (active); in assay [4], 17.2 µM (active); in assay [5], 35.9 µM (inactive); in assay [7], > 150 µM (inactive); in [8] it was > 79.4 µM (not active). Moreover, in [9], the EC50 was > 180 µM (inactive). The IC50 in assay [6] was 4.97 µM (active); in [10] it was > 39.8 µM (not active).

Turning to `O=C(c1ccc(Cl)cn1)N1CCN(c2ccnc3cc(Cl)ccc23)CC1`, the AC50 is 3.17 µM (active) in the assay with Candida albicans [11], 2.47 µM (active) in the assay on Candida albicans [12], 0.316 µM (active) with Candida albicans [13] and < 0.195 µM (active) in the assay with Candida albicans [14].

On to `c1ccc(Cc2cc(-c3ccccc3)on2)cc1`, for which the AC50 in the assay on HeLa is 253 µM (active).

In the case of `Brc1ccc(CNc2nccc(-c3ccc4c(c3)OCO4)n2)cc1Br`, in [15], the AC50 is 0.0049 µM (active).

Consider `O=C(Cn1nc(-c2ccccc2)ccc1=O)Nc1ccc(NC(=O)c2ccccn2)cc1`, for which the EC50 in [16] was 0.00816 µM (active).

Turning to `C=CC(=O)OCCOCCOCCOCCOC(=O)C=C`, the AC50 is 92 µM (active) in assay [17], 25 µM (active) in assay [18] and 19.2 µM (active) in assay [19]. Besides, the EC50 in assay [20] and in assay [21] was > 91.2 µM (inactive) throughout.

Regarding `CN1CCN2c3ccccc3Cc3ccccc3C2C1` (stereo unspecified) [MIANSERIN HYDROCHLORIDE], the CC50 in [22] is > 40 µM (active). In addition, in assay [23], the AC50 is 35.5 µM (inconclusive).

Regarding `Cc1oc2c(cc(NS(=O)(=O)c3ccc(C(C)C)cc3)c3ccccc32)c1C(=O)O`, the results for the AC50 at Caspase-7, on Caspase-6 and on Keap1/Nrf2 were > 70 µM (inactive), 4 µM (active) and 21.7 µM (active), respectively.
